In the SangsterLogP compilation one finds logP data, which are given here for 29 molecules.

The nature of this series: method code SF-AS, from DOI: 10.1021/acs.jmedchem.6b01691, PMID: 28051859.
Consider `FC(F)Sc1ccccc1`, for which the logP – broadly, a log measure of how a compound divides between an organic and an aqueous phase – is 2.89. The same measure for `COc1ccc(C(=O)c2ccccc2)cc1`: 2.69; for `CC(=O)Nc1ccc(SC(F)F)cc1`: 2.42. The value for `CSc1ccc(C)cc1` was 3.01; that for `COc1ccc(SC(F)F)cc1` was 3.11; that for `FC(F)Oc1ccc(C(F)(F)F)cc1` was 2.76. The value for `COc1ccc(C)cc1` was 2.56; that for `Cc1cccc(OC(F)F)c1` was 2.87; that for `CSc1ccc(Cl)cc1` was 3.01. Molecule `Cc1ccc(OC(F)F)cc1` displayed a logP of 2.88. The logP values of the last two molecules are within 0.2 log units of each other. The molecule `COc1ccc(SC)cc1` yielded a logP of 2.66. The value for `O=[N+]([O-])c1ccc(OC(F)F)cc1` was 1.98; that for `COc1cccc(C(F)(F)F)c1` was 2.79; that for `CSc1ccc(Br)cc1` was 2.78. `COc1cccc(F)c1` had a logP of 2.43. The value for `FC(F)Oc1cccc(C(F)(F)F)c1` was 2.69. The same measure for `CSc1ccccc1`: 2.6; for `CSc1ccc(F)cc1`: 2.77; for `CSc1ccc([N+](=O)[O-])cc1`: 2.64. The same measure for `Fc1ccc(OC(F)F)cc1`: 2.47. With `COc1ccc(F)cc1`, the logP came out at 2.14. The value for `FC(F)Sc1ccc(Cl)cc1` was 3.24.

With `COc1ccc(OC(F)F)cc1`, the logP came out at 2.35. The value for `COc1ccc(C(F)(F)F)cc1` was 2.87; that for `O=[N+]([O-])c1ccc(SC(F)F)cc1` was 2.54. The same measure for `Fc1ccc(SC(F)F)cc1`: 2.92.

In turn, `Fc1cccc(OC(F)F)c1` gave a logP of 2.59.

Take `Cc1ccc(SC(F)F)cc1`: the logP came to 3.41. With `FC(F)Sc1ccc(Br)cc1`, the logP came out at 2.96.
